{"source": "patent US12391683B2", "about": "“Therapeutic compounds and methods” (Actio Biosciences, Inc., priority 2022, dated 2025)", "key": {"TRPV3 channels": {"target": "T1, TRPV3 channels (Homo sapiens, UniProt Q8NET8)", "T1 construct": "expressed in transfected cells; host or cells: HEK293 (transient)", "T1 sequence (Q8NET8 1-790)": "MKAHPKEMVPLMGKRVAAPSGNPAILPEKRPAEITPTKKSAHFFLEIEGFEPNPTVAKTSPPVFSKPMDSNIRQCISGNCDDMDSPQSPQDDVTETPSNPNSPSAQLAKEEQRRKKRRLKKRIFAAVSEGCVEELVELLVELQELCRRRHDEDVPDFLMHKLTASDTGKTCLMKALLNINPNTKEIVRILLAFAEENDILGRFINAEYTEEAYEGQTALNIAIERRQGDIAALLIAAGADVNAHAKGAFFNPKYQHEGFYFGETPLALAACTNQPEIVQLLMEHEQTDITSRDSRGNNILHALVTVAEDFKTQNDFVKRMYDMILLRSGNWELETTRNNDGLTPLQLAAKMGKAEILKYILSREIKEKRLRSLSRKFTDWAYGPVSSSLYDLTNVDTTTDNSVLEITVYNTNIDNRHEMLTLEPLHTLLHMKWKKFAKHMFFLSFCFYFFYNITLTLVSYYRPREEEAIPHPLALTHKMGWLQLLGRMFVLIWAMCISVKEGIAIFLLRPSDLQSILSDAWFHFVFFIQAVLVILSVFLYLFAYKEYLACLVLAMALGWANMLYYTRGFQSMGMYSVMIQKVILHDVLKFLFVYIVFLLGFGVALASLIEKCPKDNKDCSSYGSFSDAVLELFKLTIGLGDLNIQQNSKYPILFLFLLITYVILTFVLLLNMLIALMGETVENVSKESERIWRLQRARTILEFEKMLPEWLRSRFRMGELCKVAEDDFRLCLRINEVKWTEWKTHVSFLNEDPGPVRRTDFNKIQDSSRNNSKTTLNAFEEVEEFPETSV", "assay": "TRP Family FLIPR Assay, TRPV3", "assay_type": "cell-based", "details": "HEK293 cells (transient)", "description": "The compound of Example 5 was tested for selectivity against a panel of Human TRP family ion channels in a TRP Family FLIPR Assay as described below. • 1. TRPC3 channels (human TRPC3 variant 1 gene, expressed in HEK293 cells). • 2. TRPC4 channels (human TRPC4 gene, expressed in HEK293 cells). • 3. TRPC5 channels (human TRPC5 gene, expressed in HEK293 cells). • 4. TRPC6 channels (human TRPC6 gene, expressed in HEK293 cells). • 5. TRPM2 channels (human TRPM2 gene, transiently expressed in HEK293 cells). • 6. TRPM3 channels (human TRPM3 gene, transiently expressed in HEK293 cells). • 7. TRPM4 channels (human TRPM4 gene, expressed in CHO cells). • 8. […]\nData acquisition was performed via the FLIPR Control software supplied with the FLIPR System (MDS-AT) and data was analyzed using Microsoft Excel (Microsoft Corp., Redmond, WA) or GraphPad Prism. […]\n[formula] where Base is the response at low concentrations of test article, Max is the maximum response at high concentrations, xhalf the EC50, or IC50, the concentration of test article producing either half-maximal activation or inhibition, and rate is the Hill coefficient. […] No assumptions about the fit parameters was made; the fit parameters were determined by the algorithm.\nThe effect of each test article was evaluated at eight (8) concentrations: 0.003, 0.01, 0.03, 0.1, 0.3, 1, 3 and 10 μM, n≤4 wells/concentration). […]"}, "Hepatocytes": {"test_system": "Hepatocytes", "assay": "Hepatocytes predicted clearance, dog"}}, "note": "pEC50, pIC50: −log10 of the molar value.", "data": [{"compound": "CC(C)(O)c1cnc(N2C[C@@]3(CC[C@@H](F)[C@](C)(Cn4cnc5ccc(C#N)cc54)C3)OC2=O)cn1", "note": "(single isomer, unassigned) [Example 5]", "values": [{"measurement": "pEC50", "setting": "TRPV3 channels; agonist mode, vs EMAX of cannabidiol 300 μM, read-out: EC50 hTRPV3", "value": "< 5.00"}, {"measurement": "pIC50", "setting": "TRPV3 channels; antagonist mode, activated with 2-APB 50 μM, 0.003-10 μM, read-out: IC50 hTRPV3", "value": "< 5.00"}, {"measurement": "Hepatocytes predicted clearance in dog", "setting": "Hepatocytes", "value": 11, "unit": "mL/min/kg"}]}]}
